{"source": "paper PMC8426295", "about": "“Cytotoxic and radiosensitising effects of a novel thioredoxin reductase inhibitor in breast cancer” (Investigational New Drugs, 2021)", "key": {"TrxR": {"biological_target": "T1, TrxR (Homo sapiens, UniProt Q16881)", "T1 sequence (Q16881 1-649)": "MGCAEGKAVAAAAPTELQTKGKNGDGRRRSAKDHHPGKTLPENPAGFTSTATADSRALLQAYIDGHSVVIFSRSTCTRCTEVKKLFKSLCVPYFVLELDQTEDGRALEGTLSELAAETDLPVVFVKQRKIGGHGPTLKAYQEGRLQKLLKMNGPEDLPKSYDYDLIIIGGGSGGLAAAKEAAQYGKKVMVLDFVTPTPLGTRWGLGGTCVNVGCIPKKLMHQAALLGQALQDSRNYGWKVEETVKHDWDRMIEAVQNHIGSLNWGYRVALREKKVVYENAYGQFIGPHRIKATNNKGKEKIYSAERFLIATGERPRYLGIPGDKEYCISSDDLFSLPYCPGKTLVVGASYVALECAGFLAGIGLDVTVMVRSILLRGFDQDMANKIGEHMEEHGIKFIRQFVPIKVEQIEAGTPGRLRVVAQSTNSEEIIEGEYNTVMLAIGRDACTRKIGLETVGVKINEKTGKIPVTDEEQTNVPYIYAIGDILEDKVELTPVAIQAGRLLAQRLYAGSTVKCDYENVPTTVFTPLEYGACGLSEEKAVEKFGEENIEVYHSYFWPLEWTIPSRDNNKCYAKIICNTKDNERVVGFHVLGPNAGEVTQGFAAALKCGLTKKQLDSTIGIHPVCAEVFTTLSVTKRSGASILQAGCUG", "test": "Thioredoxin reductase activity assay (insulin reduction) on lysates of drug-treated breast cancer cells", "type": "cell-based", "description": "TrxR enzyme activity was assessed using an insulin reduction assay. Briefly, 2 × 10^6 cells were seeded, in triplicate, in 75c m^2 tissue culture flasks. After 24 h, sub-confluent cells were treated with either IQ9 (0–1000 nM) or 1000 nM auranofin (as a positive control) for 4 or 48 h, then trypsinised, washed, and resuspended in M-PER™ Mammalian Protein Extraction Reagent (ThermoFisher, USA) supplemented with 1X Halt protease inhibitor and EDTA. Protein concentration was determined using the Bradford assay. 80 μg of protein lysates isolated from each treatment conditions and reaction mix (HE buffer (100 mM HEPES pH 7.2, 5 mM EDTA), 20 μM Trx, 1.7 mM insulin, 10 mM β-NADPH) were added to the 96-well plate and incubated for 1 h at 37 °C. The reaction was stopped by adding stop buffer containing 6 M guanidine hydrochloride, 50 mM Tris, and 10 mM DTNB (Sigma, UK), with a final pH of 8.0. The plate was read at room temperature using a BMG Fluostar Optima Microplate Reader at 412 nm wavelength. The TrxR activity was expressed as the percentage of control, no drug-treated."}, "[1]": {"tested_on": "triple-negative breast cancer cells", "test": "Drug-radiation combination clonogenic survival, stated for TNBC cells together", "type": "cell-based, human", "settings": "IQ9 for 4 h followed by irradiation, range over TNBC cell lines", "description": "5 × 10^5 cells were seeded in T25 cm^2 tissue culture flasks and incubated overnight. The sub-confluent cells were then treated either for 4-h or 48-h with IQ9 (0–5000 nM) or doxorubicin (10–20 nM). Following drug treatment, cells were collected, counted, and plated at low-density, in triplicate, and incubated, at 37 °C, 5% CO2, undisturbed, for 2 weeks for TNBC cells and 3 weeks for luminal cells, for colony formation. Colonies were fixed (50% methanol in 0.9% saline solution) and stained (0.5% crystal violet solution). Colonies consisting of more than 50 cells were confirmed by microscopy and scored as survivors. The plating efficiency (PE) was calculated as numbers of colonies formed/ numbers of cells plated. For single-agent treatment, drug or radiation, the surviving fraction was calculated as: number of colonies formed/ (numbers of cell plated x PE). […]\nSub-confluent cells were irradiated with a dose of 2, 4, 6, or 8 Gy (at a dose rate of 0.87 Gy/min) using an RS225 x-ray cabinet irradiation system (Xstrahl Limited, UK), fitted with a 0.5 mm Cu filter and run at 195 kV, 10 mA. […] The sensitiser enhancement ratio (SER), calculated by dividing the X-ray dose causing 1% cell survival in the absence of drug treatment by the X-ray dose leading to 1% cell survival in the presence of drug treatment, was used to evaluate the degree of radiosensitisation."}, "MDA-MB-231 cells": {"tested_on": "MDA-MB-231 cells", "test": "Clonogenic survival assay", "type": "cell-based", "settings": "Homo sapiens", "description": "(§1) 5 × 10^5 cells were seeded in T25 cm^2 tissue culture flasks and incubated overnight. The sub-confluent cells were then treated either for 4-h or 48-h with IQ9 (0–5000 nM) or doxorubicin (10–20 nM). Following drug treatment, cells were collected, counted, and plated at low-density, in triplicate, and incubated, at 37 °C, 5% CO2, undisturbed, for 2 weeks for TNBC cells and 3 weeks for luminal cells, for colony formation. Colonies were fixed (50% methanol in 0.9% saline solution) and stained (0.5% crystal violet solution). Colonies consisting of more than 50 cells were confirmed by microscopy and scored as survivors. The plating efficiency (PE) was calculated as numbers of colonies formed/ numbers of cells plated. For single-agent treatment, drug or radiation, the surviving fraction was calculated as: number of colonies formed/ (numbers of cell plated x PE). For drug radiation combination experiments, cytotoxicity of drug treatment was accounted for by calculating surviving fraction as: number of colonies formed from each radiation dose/ (number of cells plated × PE × surviving fraction of drug-treated cell at 0 Gy).\n(§2) IC50 values were calculated from dose-response curves using an SPSS regression model between inhibition ratios and concentration gradients. The radiobiological parameters: alpha (α), beta (β), α/β ratio, and surviving fraction at 2 Gy (SF2) were extracted from the survival curves fitted using the LQ model. All results are presented as average ± standard deviation (SD) of three independent experiments, each performed in triplicate. Data were analysed using the student T-test and ANOVA one-way test. Statistical analysis was performed using SPSS 23.0 software. Values of P < 0.05 were considered statistically significant."}, "MDA-MB-468 cells": {"tested_on": "MDA-MB-468 cells", "test": "Clonogenic survival assay", "type": "cell-based", "settings": "Homo sapiens", "description": "as §1, §2"}, "T47D cells": {"tested_on": "T47D cells", "test": "Clonogenic survival assay", "type": "cell-based", "settings": "Homo sapiens", "description": "as §1, §2"}, "MCF-7 cells": {"tested_on": "MCF-7 cells", "test": "Clonogenic survival assay", "type": "cell-based", "settings": "Homo sapiens", "description": "as §1, §2"}, "MDA-MB-436 cells": {"tested_on": "MDA-MB-436 cells", "test": "Clonogenic survival assay", "type": "cell-based", "settings": "Homo sapiens", "description": "as §1, §2"}}, "data": [{"molecule": "COC1=CC(=O)c2c(c(COc3c(F)cc(F)cc3F)cn2C)C1=O", "note": "[IQ9]", "values": [{"measurement": "inhibition of TrxR activity", "setting": "TrxR; 1000 nM, 4 h, all TNBC cell lines", "value": "complete inhibition"}, {"measurement": "inhibition at 1 µM", "setting": "TrxR; 1000 nM, 4 h, luminal cell lines", "value": "~70", "unit": "%"}, {"measurement": "inhibition in TrxR activity", "setting": "TrxR; 48 h exposure, T47D", "value": "no significant inhibition"}, {"measurement": "SER values (sensitiser enhancement ratios)", "setting": "[1]", "value": "1.20–1.43"}, {"measurement": "IC50", "setting": "MDA-MB-231 cells; MDA-MB-231, 4 h", "value": "565 ± 29.5", "unit": "nM"}, {"measurement": "IC50", "setting": "MDA-MB-231 cells; MDA-MB-231, 48 h", "value": "324 ± 20.1", "unit": "nM"}, {"measurement": "IC50", "setting": "MDA-MB-468 cells; MDA-MB-468, 4 h", "value": "502 ± 171", "unit": "nM"}, {"measurement": "IC50", "setting": "MDA-MB-468 cells; MDA-MB-468, 48 h", "value": "916 ± 173", "unit": "nM"}, {"measurement": "IC50", "setting": "T47D cells; 4 h", "value": "2070 ± 53.7", "unit": "nM"}, {"measurement": "IC50", "setting": "T47D cells; 48 h", "value": "1880 ± 298", "unit": "nM"}, {"measurement": "IC50", "setting": "MCF-7 cells; MCF7, 4 h", "value": "340.5 ± 2.1", "unit": "nM"}, {"measurement": "IC50", "setting": "MCF-7 cells; MCF7, 48 h", "value": "601 ± 114", "unit": "nM"}, {"measurement": "IC50", "setting": "MDA-MB-436 cells; MDA-MB-436, 4 h", "value": "195 ± 4.5", "unit": "nM"}, {"measurement": "IC50", "setting": "MDA-MB-436 cells; MDA-MB-436, 48 h", "value": "236 ± 71.5", "unit": "nM"}]}]}
